# Source: BindingDB's records for doi:10.1016/S1074-5521(02)00281-8 (Massachusetts Institute of Technology, 2002)
# Starred links: 1 amine or outer side, 2 acyl side, 3 side chain; linkers in the order of their positions; H or OH if unused. Positions of bridges follow the written chain, without caps; N, C: chain ends. Non-standard residues stand in square brackets, D forms with d. Residues, ends and D or L forms follow the SMILES beside them. Chains are numbered I, II in the order given. Actinocin(9to1) = Cc1c2oc3c(C)ccc(C(=O)[*:1])c3nc-2c(C(=O)[*:2])c(N)c1=O; NMeV = CN[C@H](C(=O)O)C(C)C; Sar = CNCC(=O)O
# Molecular target: T1, Dolichyl-diphosphooligosaccharide--protein glycosyltransferase subunit 1 (Saccharomyces cerevisiae, UniProt P41543)
# T1 sequence (P41543 whole entry): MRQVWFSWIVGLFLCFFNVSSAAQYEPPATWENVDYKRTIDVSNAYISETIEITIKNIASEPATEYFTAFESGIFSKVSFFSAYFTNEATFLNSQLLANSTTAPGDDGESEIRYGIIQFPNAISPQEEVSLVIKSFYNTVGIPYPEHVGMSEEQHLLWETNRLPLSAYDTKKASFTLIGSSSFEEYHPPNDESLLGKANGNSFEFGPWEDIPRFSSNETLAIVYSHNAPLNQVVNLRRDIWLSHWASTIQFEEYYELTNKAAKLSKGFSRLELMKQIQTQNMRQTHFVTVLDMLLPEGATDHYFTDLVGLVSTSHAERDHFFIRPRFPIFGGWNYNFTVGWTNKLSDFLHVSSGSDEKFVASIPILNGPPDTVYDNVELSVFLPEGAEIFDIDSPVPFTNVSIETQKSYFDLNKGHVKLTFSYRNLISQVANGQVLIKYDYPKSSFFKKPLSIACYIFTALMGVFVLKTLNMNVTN
# Assay: Competition Assay
# Settings: pH 7.5; 0 °C
# Source text: Competition assay using S. cerevisiae oligosaccharyl transferase (OT)with disaccharide donor Dol-P-P-(GlcNAc)2 and the tripeptide substrate Bz-Asn-Leu-Thr-NHMe.
row,Ki [µM],Structure (SMILES)
1,4,O=C(Nc1ccc(C2=NCCN2)cc1)c1ccc(C(=O)Nc2ccc(C3=NCCN3)cc2)c(Cl)c1
2,34,COc1ccc(NS(=O)(=O)c2ccc(NC(=O)C(CCSC)NC(N)=O)cc2)cc1 (stereo not drawn) [2-(aminocarbonylamino)-N-[4-[(4-methoxyphenyl)sulfamoyl]phenyl]-4-methylsulfanyl-butanamide]
3,100,"COc1ccc(-n2cnnc2SCC(=O)Nc2cc(C)on2)cc1 [2-[[4-(4-methoxyphenyl)-1,2,4-triazol-3-yl]sulfanyl]-N-(5-methyl-1,2-oxazol-3-yl)acetamide]"
4,0.041,"Cc1c2oc3c(C)ccc(C(=O)N[C@@H]4C(=O)N[C@H](C(C)C)C(=O)N5CCC[C@H]5C(=O)N(C)CC(=O)N(C)[C@@H](C(C)C)C(=O)O[C@@H]4C)c3nc-2c(C(=O)N[C@@H]2C(=O)N[C@H](C(C)C)C(=O)N3CCC[C@H]3C(=O)N(C)CC(=O)N(C)[C@@H](C(C)C)C(=O)O[C@@H]2C)c(N)c1=O [2-amino-N,N''-bis[(3R,6S,7R,10S,16S)-3,10-diisopropyl-2,5,9,12,15-pentaketo-7,11,14-trimethyl-8-oxa-1,4,11,14-tetrazabicyclo[14.3.0]nonadecan-6-yl]-3-keto-4,6-dimethyl-phenoxazine-1,9-dicarboxamide] (I: T[dV]P[Sar][NMeV] / II: T[dV]P[Sar][NMeV]; ester I:1-I:C, II:1-II:C; linker I:N-II:N via Actinocin(9to1))"
5,1.1,"COc1ccc(OC)c(Nc2nc(NCCCN(C)C)nc(N)c2[N+](=O)[O-])c1 [3-[[4-amino-6-(2,5-dimethoxyanilino)-5-nitro-pyrimidin-2-yl]amino]propyl-dimethyl-amine]"
6,0.062,"COC(=O)c1ccc(O)c2nc3c(C=O)c(O)cc(O)c3nc12 [6-formyl-4,7-dihydroxy-9-keto-5H-phenazine-1-carboxylic acid methyl ester]"
7,2.5,"CC(=O)Nc1ccc(NC(=O)c2ccc(Cl)nc2)cc1 [Glycopeptide, 2]"

row,Structure (SMILES),Ki [µM]
1,CC[N+](C)(CC)CCCCOc1ccc2c(c1)C(=O)c1cc(OCCCC[N+](C)(CC)CC)ccc1-2 [4-[7-[4-[diethyl(methyl)ammonio]butoxy]-9-keto-fluoren-2-yl]oxybutyl-diethyl-methyl-ammonium;iodide],4.5
